Target: His6-TEV-PDGFRβ (557-1016) (Homo sapiens (Human), UniProt P09619)
Test: PDGFRβ HTRF Assay
Assay type: biochemical
Conditions: read-out: PDGFR HTRF IC50
How it was run: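 Human PDGFRβ (557-1016) pre-incubated with compound for 30 min at RT in pH 7.5 HEPES/MgCl2/EGTA/Brij-35/DTT buffer. Reaction started with ATP and TK-biotin peptide, run 3 h at RT, then quenched with EDTA-containing Eu-cryptate antibody/streptavidin-XL665. HTRF 665/620 nm ratio read after 60 min; percent inhibition relative to DMSO and 10 μM imatinib controls.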

His6-TEV-PDGFRβ (557-1016), sequence (P09619 557-1016): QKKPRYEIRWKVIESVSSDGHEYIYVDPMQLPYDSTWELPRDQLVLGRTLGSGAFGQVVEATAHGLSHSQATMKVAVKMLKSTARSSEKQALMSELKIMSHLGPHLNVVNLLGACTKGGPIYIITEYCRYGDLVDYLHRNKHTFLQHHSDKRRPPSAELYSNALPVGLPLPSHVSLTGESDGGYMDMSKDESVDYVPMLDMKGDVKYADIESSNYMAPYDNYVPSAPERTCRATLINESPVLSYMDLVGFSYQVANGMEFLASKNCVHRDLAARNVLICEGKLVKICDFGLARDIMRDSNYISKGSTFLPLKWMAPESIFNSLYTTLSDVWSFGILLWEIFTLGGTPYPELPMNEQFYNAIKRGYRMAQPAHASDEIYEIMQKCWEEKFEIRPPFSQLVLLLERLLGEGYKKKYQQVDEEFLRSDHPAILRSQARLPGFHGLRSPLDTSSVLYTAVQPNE

| Structure (SMILES) | IC50 |
| --- | --- |
| COCCn1cc(-c2cn3ncc(C(=O)Nc4cc(NC(=O)CCCN5CCC[C@@H]5C)cnc4C)c3s2)cn1 [Example 216, (S)-2-(1-(2-methoxyethyl)-1H-pyrazol-4-yl)-N-(2-methyl-5-(4-(2-methylpyrrolidin-1-yl)butanamido)pyridin-3-yl)pyrazolo[5,1-b]thiazole-7-carboxamide] | 1.5 nM |
| Cc1ncc(NC(=O)OC[C@@H]2CCCN2C)cc1NC(=O)c1cnn2cc(-c3cnn(C)c3)sc12 [Example 243, (S)-(1-methylpyrrolidin-2-yl)methyl (6-methyl-5-(2-(1-methyl-1H-pyrazol-4-yl)pyrazolo[5,1-b]thiazole-7-carboxamido)pyridin-3-yl)carbamate] | 0.5 nM |
| Cc1ncc(C(=O)NCCN2CCCC2(C)C)cc1NC(=O)c1cnn2cc(-c3cn(C)nc3CO)sc12 [Example 224, N-(5-((2-(2,2-dimethylpyrrolidin-1-yl)ethyl)carbamoyl)-2-methylpyridin-3-yl)-2-(3-(hydroxymethyl)-1-methyl-1H-pyrazol-4-yl)pyrazolo[5,1-b]thiazole-7-carboxamide] | 1.4 nM |
| Cc1cc(C(=O)NCCN(C)C2CCCC2)sc1NC(=O)c1cnn2cc(-c3cnn(C)c3)sc12 [Example 190, N-(5-((2-(cyclopentyl(methyl)amino)ethyl)carbamoyl)-3-methylthiophen-2-yl)-2-(1-methyl-1H-pyrazol-4-yl)pyrazolo[5,1-b]thiazole-7-carboxamide] | 6 nM |
| COc1ncccc1-c1cn2ncc(C(=O)Nc3cc(C(=O)NCCN4CCC[C@H]4C)cnc3C)c2s1 [Example 242, (R)-2-(2-methoxypyridin-3-yl)-N-(2-methyl-5-((2-(2-methylpyrrolidin-1-yl)ethyl)carbamoyl)pyridin-3-yl)pyrazolo[5,1-b]thiazole-7-carboxamide] | 0.2 nM |
| Cc1ncc(C(=O)NCCN2CCCC2(C)C)cc1NC(=O)c1cnn2cc(-n3ncc4cccnc43)sc12 [Example 217, N-(5-((2-(2,2-dimethylpyrrolidin-1-yl)ethyl)carbamoyl)-2-methylpyridin-3-yl)-2-(1H-pyrazolo[3,4-b]pyridin-1-yl)pyrazolo[5,1-b]thiazole-7-carboxamide] | 0.4 nM |
| COc1ncccc1-c1cn2ncc(C(=O)Nc3cc(NC(=O)OC[C@@H]4CCCN4C)cnc3C)c2s1 [Example 253, (S)-(1-methylpyrrolidin-2-yl)methyl (5-(2-(2-methoxypyridin-3-yl)pyrazolo[5,1-b]thiazole-7-carboxamido)-6-methylpyridin-3-yl)carbamate] | 0.2 nM |
| Cc1ncc(C(=O)NCCNCCO)cc1NC(=O)c1cnn2cc(-c3cnn(C)c3)sc12 [Example 234, N-(5-((2-((2-hydroxyethyl)amino)ethyl)carbamoyl)-2-methylpyridin-3-yl)-2-(1-methyl-1H-pyrazol-4-yl)pyrazolo[5,1-b]thiazole-7-carboxamide] | 4.6 nM |
| CCc1cc(C(=O)NCCN2CCCC23CCC3)sc1NC(=O)c1cnn2cc(-c3cnn(C)c3)sc12 [Example 205, N-(5-((2-(5-azaspiro[3.4]octan-5-yl)ethyl)carbamoyl)-3-ethylthiophen-2-yl)-2-(1-methyl-1H-pyrazol-4-yl)pyrazolo[5,1-b]thiazole-7-carboxamide] | 39.4 nM |
| Cc1ncc(C(=O)NCCN2CCCC2)cc1NC(=O)c1cnn2cc(-c3cnn(CCC(O)CO)c3)sc12 (stereo not shown) [Example 222, 2-(1-(3,4-Dihydroxybutyl)-1H-pyrazol-4-yl)-N-(2-methyl-5-((2-(pyrrolidin-1-yl)ethyl)carbamoyl)pyridin-3-yl)pyrazolo[5,1-b]thiazole-7-carboxamide] | 0.7 nM |
| Cc1cc(C(=O)NCCN2CCOCC23CC3)sc1NC(=O)c1cnn2cc(-c3cnn(C)c3)sc12 [Example 197, N-(5-((2-(7-oxa-4-azaspiro[2.5]octan-4-yl)ethyl)carbamoyl)-3-methylthiophen-2-yl)-2-(1-methyl-1H-pyrazol-4-yl)pyrazolo[5,1-b]thiazole-7-carboxamide] | 11.5 nM |
| Cc1ncc(NC(=O)CCN2CCCC2(C)C)cc1NC(=O)c1cnn2cc(-c3cccc4c3cnn4C)sc12 [Example 241, N-(5-(3-(2,2-dimethylpyrrolidin-1-yl)propanamido)-2-methylpyridin-3-yl)-2-(1-methyl-1H-indazol-4-yl)pyrazolo[5,1-b]thiazole-7-carboxamide] | 0.1 nM |
| Cc1ncc(C(=O)NCCN2CCCC23CCC3)cc1NC(=O)c1cnn2cc(-c3cnn(C)c3C)sc12 [Example 209, N-(5-((2-(5-azaspiro[3.4]octan-5-yl)ethyl)carbamoyl)-2-methyl-pyridin-3-yl)-2-(1,5-dimethyl-1H-pyrazol-4-yl)pyrazolo[5,1-b]thiazole-7-carboxamide] | 0.3 nM |
| COc1ncccc1-c1cn2ncc(C(=O)Nc3cc(C(=O)NCCN4CCCC4C)cnc3C)c2s1 (stereo not shown) [Example 228, 2-(2-Methoxypyridin-3-yl)-N-(2-methyl-5-((2-(2-methylpyrrolidin-1-yl)ethyl)carbamoyl)pyridin-3-yl)pyrazolo[5,1-b]thiazole-7-carboxamide] | 0.2 nM |
| Cc1ncc(C(=O)NCCN2CCCC2(C)C)cc1NC(=O)c1cnn2cc(-c3cncc(S(C)(=O)=O)c3)sc12 [Example 230, N-(5-((2-(2,2-dimethylpyrrolidin-1-yl)ethyl)carbamoyl)-2-methylpyridin-3-yl)-2-(5-(methylsulfonyl)pyridin-3-yl)pyrazolo[5,1-b]thiazole-7-carboxamide] | 3.2 nM |
| Cc1ncc(NC(=O)OCCN2CCCC2)cc1NC(=O)c1cnn2cc(-c3cnn(C)c3)sc12 [Example 246, 2-(pyrrolidin-1-yl)ethyl (6-methyl-5-(2-(1-methyl-1H-pyrazol-4-yl)pyrazolo[5,1-b]thiazole-7-carboxamido)pyridin-3-yl)carbamate] | 1.4 nM |
| Cn1cc(-c2cn3ncc(C(=O)Nc4cc(C(=O)NCCN5CCCC5(C)C)ccc4F)c3s2)cn1 [Example 207, N-(5-((2-(2,2-dimethylpyrrolidin-1-yl)ethyl)carbamoyl)-2-fluorophenyl)-2-(1-methyl-1H-pyrazol-4-yl)pyrazolo[5,1-b]thiazole-7-carboxamide] | 0.3 nM |
| Cc1ncc(NC(=O)OC2CN(C(C)(C)C)C2)cc1NC(=O)c1cnn2cc(-c3cnn(C)c3)sc12 [Example 252, 1-(tert-butyl)azetidin-3-yl (6-methyl-5-(2-(1-methyl-1H-pyrazol-4-yl)pyrazolo[5,1-b]thiazole-7-carboxamido)pyridin-3-yl)carbamate] | 1.1 nM |
| Cc1ncc(C(=O)NCCN(CCO)CC2CCCCC2)cc1NC(=O)c1cnn2cc(-c3cnn(C)c3)sc12 [Example 235, N-(5-((2-((cyclohexylmethyl)(2-hydroxyethyl)amino)ethyl)carbamoyl)-2-methylpyridin-3-yl)-2-(1-methyl-1H-pyrazol-4-yl)pyrazolo[5,1-b]thiazole-7-carboxamide] | 0.5 nM |
| Cc1ncc(C(=O)NCCN2CCCC2)cc1NC(=O)c1cnn2cc(-c3cnn(C)c3)sc12 [Example 219, 2-(1-Methyl-1H-pyrazol-4-yl)-N-(2-methyl-5-((2-(pyrrolidin-1-yl)ethyl)carbamoyl)pyridin-3-yl)pyrazolo[5,1-b]thiazole-7-carboxamide] | 0.4 nM |
| Cc1cc(C(=O)NCCN2CCCC2(C)C)sc1NC(=O)c1cnn2cc(-c3ccncc3)sc12 [Example 187, N-(5-((2-(2,2-dimethylpyrrolidin-1-yl)ethyl)carbamoyl)-3-methylthiophen-2-yl)-2-(pyridin-4-yl)pyrazolo[5,1-b]thiazole-7-carboxamide] | 27.7 nM |
| Cc1cc(C(=O)NCCN2CCc3ccccc3C2)sc1NC(=O)c1cnn2cc(-c3cnn(C)c3)sc12 [Example 204, N-(5-((2-(3,4-dihydroisoquinolin-2 (1H)-yl)ethyl)carbamoyl)-3-methylthiophen-2-yl)-2-(1-methyl-1H-pyrazol-4-yl)pyrazolo[5,1-b]thiazole-7-carboxamide] | 19.2 nM |
| Cc1cc(C(=O)NCCN2CC[C@@H](O)C2)sc1NC(=O)c1cnn2cc(-c3cnn(C)c3)sc12 [Example 194, (R)—N-(5-((2-(3-hydroxypyrrolidin-1-yl)ethyl)carbamoyl)-3-methylthiophen-2-yl)-2-(1-methyl-1H-pyrazol-4-yl)pyrazolo[5,1-b]thiazole-7-carboxamide] | 147 nM |
| Cc1cc(C(=O)NCCN2CCCC2(C)C)sc1NC(=O)c1cnn2cc(-c3cnn(C)c3)sc12 [Example 182, N-(5-((2-(2,2-dimethylpyrrolidin-1-yl)ethyl)carbamoyl)-3-methylthiophen-2-yl)-2-(1-methyl-1H-pyrazol-4-yl)pyrazolo[5,1-b]thiazole-7-carboxamide] | 24.1 nM |
| Cc1ncc(NC(=O)CCCN2CCC23CCC3)cc1NC(=O)c1cnn2cc(-c3cnn(C)c3)sc12 [Example 215, N-(5-(4-(1-azaspiro[3.3]heptan-1-yl)butanamido)-2-methylpyridin-3-yl)-2-(1-methyl-1H-pyrazol-4-yl)pyrazolo[5,1-b]thiazole-7-carboxamide] | 0.5 nM |
| Cc1cc(C(=O)NCCN2CCC(O)CC2)sc1NC(=O)c1cnn2cc(-c3cnn(C)c3)sc12 [Example 191, N-(5-((2-(4-hydroxypiperidin-1-yl)ethyl)carbamoyl)-3-methylthiophen-2-yl)-2-(1-methyl-1H-pyrazol-4-yl)pyrazolo[5,1-b]thiazole-7-carboxamide] | 248 nM |
| Cc1ncc(C(=O)NCCN2CCCC2)cc1NC(=O)c1cnn2cc(-c3cnn(CC(O)CO)c3)sc12 (stereo not shown) [Example 225, 2-(1-(2,3-Dihydroxypropyl)-1H-pyrazol-4-yl)-N-(2-methyl-5-((2-(pyrrolidin-1-yl)ethyl)carbamoyl)pyridin-3-yl)pyrazolo[5,1-b]thiazole-7-carboxamide] | 0.6 nM |
| Cc1ncc(NC(=O)CN2CCN(C)CC2)cc1NC(=O)c1cnn2cc(-c3cnn(C)c3)sc12 [Example 232, 2-(1-methyl-1H-pyrazol-4-yl)-N-(2-methyl-5-(2-(4-methylpiperazin-1-yl)acetamido)pyridin-3-yl)pyrazolo[5,1-b]thiazole-7-carboxamide] | 25.9 nM |
